Measured values from US7678810B2, “Thiazole derivative” (Taisho Pharmaceutical Co., Ltd, priority 2004, dated 2010).
Where a name gives a salt, the structure may show the parent alone.

test system: Smad2/3 phosphorylation caused by TGF-β1 stimulation; test: Smad2/3 phosphorylation inhibitory activity test; format: cell-based; details: Homo sapiens; A549 cells; compound 2 hours before TGF-β1 1 ng/ml, 1 hour; anti-Smad2/3 immunoprecipitation, Western blotting
Procedure: A549 cells were seeded to a plate, and cultured overnight in a Ham's F-12 medium supplemented with 10% FBS. This medium was replaced with the same medium containing the compounds or not containing the compounds, and after incubated another 2 hours, TGF-01 was added thereto so as to make its final concentration 1 ng/ml, and further incubated another 1 hour. After completion of incubation, the medium was removed, and the cells were washed with PBS and then lysed by a RIPA solution. The cell lysate solution was subjected to immunoprecipitation using anti-Smad2/3 antibody, and then Western blotting was performed. Using a rabbit anti-phosphorylated serine antibody as a primary antibody, a HRP-labeled anti-rabbit IgG antibody as a secondary antibody, and ECL Western blotting detection reagents as detection reagents, light emitting amounts were measured using Limi-Imager F1 (Roche Diagnostics) etc.
Following the above described methods, the inhibitory activities of the respective compounds against Smad2/3 phosphorylation caused by TGF-β1 stimulation were measured, and IC50 values were calculated.

| SMILES | IC50 [nM] |
| --- | --- |
| Cc1csc(-c2nc(COC(=O)N(C)C)[nH]c2-c2ccc3ncsc3c2)n1 [Compound 199] | 70 |
| CCCC(O)CCc1nc(-c2nc(C)cs2)c(-c2ccc3ncsc3c2)[nH]1 (stereo not drawn) [Compound 81] | 52 |
| Cc1csc(-c2nc(CNC(=O)C3CCOCC3)[nH]c2-c2ccc3ncsc3c2)n1 [Compound 129] | 107 |
| Cc1csc(-c2nc(CNC(=O)N(C)C)[nH]c2-c2ccc3ncsc3c2)n1 [Compound 176] | 77 |
| Cc1csc(-c2nc(C3CCOCC3)[nH]c2-c2ccc3ncsc3c2)n1 [Compound 83] | 99 |
| Cc1csc(-c2nc(C3CCC(=O)CC3)[nH]c2-c2ccc3ncsc3c2)n1 [Compound 80] | 89 |
| Cc1csc(-c2nc(N)[nH]c2-c2ccc3ncsc3c2)n1 [Compound 68] | 31 |
| CCCC(=O)CCc1nc(-c2nc(C)cs2)c(-c2ccc3ncsc3c2)[nH]1 [Compound 201] | 42 |
| COCCCCc1nc(-c2nc(C)cs2)c(-c2ccc3ncsc3c2)[nH]1 [Compound 87] | 38 |
| CCNC(=O)OCc1nc(-c2nc(C)cs2)c(-c2ccc3ncsc3c2)[nH]1 [Compound 198] | 93 |
| C#CCOC(=O)NCc1nc(-c2nc(C)cs2)c(-c2ccc3ncsc3c2)[nH]1 [Compound 191] | 31 |
| COCC(=O)NCc1nc(-c2nc(C)cs2)c(-c2ccc3ncsc3c2)[nH]1 [Compound 124] | 67 |
| COC(=O)NCc1nc(-c2nc(C)cs2)c(-c2ccc3ncsc3c2)[nH]1 [Compound 186] | 38 |
| CCCNC(=O)CCCCc1nc(-c2nc(C)cs2)c(-c2ccc3ncsc3c2)[nH]1 [Compound 171] | 89 |
| CCNC(=O)NCc1nc(-c2nc(C)cs2)c(-c2ccc3ncsc3c2)[nH]1 [Compound 175] | 126 |
| Cc1csc(-c2nc(CN3CCOC3=O)[nH]c2-c2ccc3ncsc3c2)n1 [Compound 197] | 92 |
| CCCC(=O)NCc1nc(-c2nc(C)cs2)c(-c2ccc3ncsc3c2)[nH]1 [Compound 105] | 32 |
| Cc1csc(-c2nc(C)[nH]c2-c2ccc3ncsc3c2)n1 [Compound 52] | 24 |
| Cc1csc(-c2nc(-c3ccc(C(N)=O)cc3)[nH]c2-c2ccc3ncsc3c2)n1 [Compound 50] | 80 |
| CCCCc1nc(-c2nc(C)cs2)c(-c2ccc3ncsc3c2)[nH]1 [Compound 57] | 45 |

test system: not given; test: not given; details: not given

| SMILES | melting point |
| --- | --- |
| Cc1csc(-c2nc(COC(=O)N(C)C)[nH]c2-c2ccc3ncsc3c2)n1 [Compound 199] | 181.5 to 182 °C |
| Cc1csc(-c2nc(CNC(=O)C3CCOCC3)[nH]c2-c2ccc3ncsc3c2)n1 [Compound 129] | 197 to 197.5 °C |
| COCC(=O)NCc1nc(-c2nc(C)cs2)c(-c2ccc3ncsc3c2)[nH]1 [Compound 124] | 223.5 to 224 °C |
| COCCCC(=O)NCc1nc(-c2nc(C)cs2)c(-c2ccc3ncsc3c2)[nH]1 [Compound 125] | 186.5 to 190 °C |
| CCCC(=O)NCc1nc(-c2nc(C)cs2)c(-c2ccc(O)cc2)[nH]1 [Compound 101] | 135.5 to 136.5 °C |
| COCCC(=O)NCc1nc(-c2nc(C)cs2)c(-c2ccc3ncsc3c2)[nH]1 [Compound 127] | 154.5 to 155.5 °C |
| CC(=O)Nc1nc(-c2nc(C)cs2)c(-c2ccc3c(c2)OCO3)[nH]1 [Compound 20] | 169 to 173 °C |
| CCC(CC)c1nc(-c2nc(C)cs2)c(-c2ccc3ncsc3c2)[nH]1 (as salt: HCl) [Compound 62] | 207 to 212 °C |
| Cc1csc(-c2nc(CNC(=O)CCC(C)C)[nH]c2-c2ccc3ncsc3c2)n1 [Compound 110] | 172.5 to 173.5 °C |
| CCCCNC(=O)c1nc(-c2nc(C)cs2)c(-c2ccc3ncsc3c2)[nH]1 [Compound 140] | 209.5 to 212.5 °C |
| COCCCNC(=O)CCc1nc(-c2nc(C)cs2)c(-c2ccc3ncsc3c2)[nH]1 [Compound 164] | 144.5 to 145 °C |
| COc1ccc(CNC(=O)CCCCc2nc(-c3nc(C)cs3)c(-c3ccc4ncsc4c3)[nH]2)cc1 [Compound 173] | 140 to 140.5 °C |
| CCN(CC)C(=O)NCc1nc(-c2nc(C)cs2)c(-c2ccc3ncsc3c2)[nH]1 [Compound 181] | 222.5 to 223 °C |
| Cc1csc(-c2nc(CCC(=O)NC(C)C)[nH]c2-c2ccc3ncsc3c2)n1 [Compound 145] | 217.5 to 218 °C |
| Cc1csc(-c2nc(CCC(=O)NCCN(C)C)[nH]c2-c2ccc3ncsc3c2)n1 [Compound 149] | 163.5 to 164 °C |
| Cc1csc(-c2nc(CCC(=O)N3CCN(CCN(C)C)CC3)[nH]c2-c2ccc3ncsc3c2)n1 [Compound 158] | 169.5 to 172 °C |
| Cc1csc(-c2nc(CNC(=O)CCO)[nH]c2-c2ccc3ncsc3c2)n1 [Compound 122] | 215 to 218.5 °C |
| COC(=O)CCc1nc(-c2nc(C)cs2)c(-c2ccc3ncsc3c2)[nH]1 [Compound 142] | 168.5 to 170.5 °C |
| Cc1csc(-c2nc(CNC(=O)CN)[nH]c2-c2ccc3ncsc3c2)n1 [Compound 120] | 214.5 to 215 °C |
| CC(O)c1nc(-c2nc(-c3ccc(C(N)=O)cc3)[nH]c2-c2ccc3c(c2)OCO3)cs1 (stereo not drawn) [Compound 6] | 140 to 148 °C |
| Cc1csc(-c2nc(NC(=O)c3ccccc3)[nH]c2-c2ccc3c(c2)OCO3)n1 [Compound 22] | 223 to 225 °C |
| Cc1csc(C(=O)C(=O)c2ccc(F)cc2)n1 [Compound 206] | 75 to 77 °C |
| Cc1csc(-c2nc(CNC(=O)COCCO)[nH]c2-c2ccc3ncsc3c2)n1 [Compound 126] | 193 to 194 °C |

| SMILES | melting point |
| --- | --- |
| CCN(CC)C(=O)OCc1nc(-c2nc(C)cs2)c(-c2ccc3ncsc3c2)[nH]1 (as salt: HCl) [Compound 237] | 119 to 124 °C |
| Cc1csc(-c2nc(C3CCC(=O)N3)[nH]c2-c2ccc3ncsc3c2)n1 (stereo not drawn) [Compound 229] | 273 to 275 °C (dec.) |
| CCCCCOC(=O)NCc1nc(-c2nc(C)cs2)c(-c2ccc3ncsc3c2)[nH]1 [Compound 195] | 177.5 to 178.5 °C |
| Cc1csc(-c2nc(CNC(=O)C(C)(C)C)[nH]c2-c2ccc3ncsc3c2)n1 [Compound 109] | 229 to 229.5 °C |
| Cc1csc(-c2nc(N)[nH]c2-c2ccc3c(c2)OCO3)n1 [Compound 19] | 205.5 to 208 °C |
| N#Cc1ccc(-c2nc(-c3nccs3)c(-c3ccccn3)n2O)cc1 [Compound 202] | 248 to 251 °C (dec.) |
| Cc1csc(-c2nc(CNC(=O)OCCCl)[nH]c2-c2ccc3ncsc3c2)n1 [Compound 188] | 202 to 204 °C (dec.) |
| Cc1csc(-c2nc(CNC(=O)C3CCOC3)[nH]c2-c2ccc3ncsc3c2)n1 (stereo not drawn) [Compound 128] | 174 to 175 °C |
| CCC(C)(C)C(=O)NCc1nc(-c2nc(C)cs2)c(-c2ccc3ncsc3c2)[nH]1 [Compound 111] | 212.5 to 213.5 °C |
| Cc1csc(-c2nc(CCC(=O)NC(C)(C)C)[nH]c2-c2ccc3ncsc3c2)n1 [Compound 147] | 201.5 to 202 °C |
| Cc1csc(-c2nc(CCC(=O)N3CCOCC3)[nH]c2-c2ccc3c(c2)OCO3)n1 [Compound 161] | 216.5 to 218 °C |
| Cc1csc(-c2nc(CCN)[nH]c2-c2ccc3c(c2)OCO3)n1 [Compound 27] | 155.5 to 157.5 °C |
| Cc1csc(-c2nc(CCC(=O)NCCCN3CCN(C)CC3)[nH]c2-c2ccc3ncsc3c2)n1 [Compound 153] | 188 to 189 °C |
| COc1ccc(Cn2c(C)nc(-c3nc(C)cs3)c2-c2ccc3ncsc3c2)cc1 [Compound 231] | 144 to 145 °C |
| CC(=O)c1nc(-c2nc(-c3ccc(C(N)=O)cc3)[nH]c2-c2ccc3c(c2)OCO3)cs1 [Compound 7] | 153 to 159 °C |
| Cc1csc(C(=O)C(=O)c2ccc3c(c2)OCO3)n1 [Compound 203] | 131.5 to 132.5 °C |
| CNC(=O)OCc1nc(-c2nc(C)cs2)c(-c2ccc3ncsc3c2)[nH]1 [Compound 235] | 158 to 159.5 °C |
| Cc1csc(-c2nc(CNC(=O)NC3CCCC3)[nH]c2-c2ccc3ncsc3c2)n1 [Compound 183] | 185.5 to 188 °C |
| Cc1csc(-c2nc(CNC(=O)C3CCCCO3)[nH]c2-c2ccc3ncsc3c2)n1 (stereo not drawn) [Compound 241] | 220.5 to 222 °C |
| Cc1csc(-c2nc(CCC(=O)N3CCCCC3)[nH]c2-c2ccc3ncsc3c2)n1 [Compound 148] | 179 to 180 °C |
| Cc1csc(-c2nc(C3CCC(=O)N3)[nH]c2-c2ccc3ncsc3c2)n1 (stereo not drawn) [Compound 230] | 263 to 268 °C (dec.) |
| CCCC(=O)NCc1nc(-c2nc(C)cs2)c(-c2ccc(OC)c(OCc3ccccc3)c2)[nH]1 [Compound 104] | 176 to 177 °C |
| Cc1csc(-c2nc(CNC(=O)C3CCC3)[nH]c2-c2ccc3ncsc3c2)n1 [Compound 108] | 199 to 200 °C |
